From publication PMC4907692, “Engineering vanilloid-sensitivity into the rat TRPV2 channel” (eLife, 2016)

Legend:
[1] = target: T1, TRPV2 QM (Rattus norvegicus, UniProt Q9WUD2, F472S/L507M/L510T/Q530E); experiment: Two-electrode voltage-clamp in Xenopus oocytes, TRPV2 QM; type: cell-based; conditions: 50 µM capsaicin
T1 construct: expressed in transfected cells; host or cells: Xenopus oocytes (cRNA injection)
T1 sequence (Q9WUD2 1-761 F472S/L507M/L510T/Q530E): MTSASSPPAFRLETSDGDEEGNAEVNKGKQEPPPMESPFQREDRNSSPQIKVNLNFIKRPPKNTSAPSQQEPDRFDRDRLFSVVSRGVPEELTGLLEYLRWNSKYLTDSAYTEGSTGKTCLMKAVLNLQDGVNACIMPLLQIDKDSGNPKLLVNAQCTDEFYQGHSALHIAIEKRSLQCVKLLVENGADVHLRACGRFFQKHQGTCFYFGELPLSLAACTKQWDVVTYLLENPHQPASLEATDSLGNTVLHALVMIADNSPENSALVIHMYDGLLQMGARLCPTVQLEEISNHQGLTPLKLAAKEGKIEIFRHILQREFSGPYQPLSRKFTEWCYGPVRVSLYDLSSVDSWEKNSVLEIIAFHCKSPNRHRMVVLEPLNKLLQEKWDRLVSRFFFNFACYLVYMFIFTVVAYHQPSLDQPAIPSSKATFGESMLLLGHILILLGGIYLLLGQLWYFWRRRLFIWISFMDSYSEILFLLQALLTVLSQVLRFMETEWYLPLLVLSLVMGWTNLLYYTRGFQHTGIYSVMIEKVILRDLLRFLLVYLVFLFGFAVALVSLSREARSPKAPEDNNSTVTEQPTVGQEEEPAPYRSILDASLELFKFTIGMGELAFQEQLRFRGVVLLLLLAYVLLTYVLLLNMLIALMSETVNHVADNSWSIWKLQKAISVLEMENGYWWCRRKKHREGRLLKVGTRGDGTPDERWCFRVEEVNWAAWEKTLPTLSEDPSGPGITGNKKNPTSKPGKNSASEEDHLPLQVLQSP
Excerpt: (§1) To further investigate the putative vanilloid binding pocket in TRPV1, we inspected the cryo-EM structure of TRPV1, looking for residues that are located nearby to the putative RTx density (Figure 1B; regions/residues highlighted in yellow) and that differ between TRPV1 and TRPV2 channels (Figure 3—figure supplement 1; regions highlighted in magenta). […] To quantify the contribution of each of these residues to TRPV1 channel activation by RTx under our experimental conditions, we mutated each to the corresponding residue in TRPV2. We then expressed each construct in oocytes and used the two electrode voltage-clamp technique to study activation by RTx and by the non-specific TRPV channel activator 2-APB. We recorded time courses for channel activation by each agonist while stepping the membrane potential from −60 to +60 mV every 3 s from a holding potential of 0 mV using an external recording solution containing 100 mM KCl (internal K^+ concentration in a healthy oocyte is 100 mM) (Figure 3A, left). We also recorded current-voltage (I-V) relations by stepping over a wider range of voltages in the absence and presence of activators, or in the presence of ruthenium red (RR), a non-specific inhibitor of TRP channels (Figure 3A, right). […]

[2] = system: TRPV2; set-up: method as in Caterina et al., 1999; conditions: ref Caterina et al., 1999; cited from earlier work
[3] = target: T2, WT TRPV1 (Rattus norvegicus, UniProt O35433); experiment: Two-electrode voltage-clamp in Xenopus oocytes, WT TRPV1; type: cell-based
T2 construct: expressed in transfected cells; host or cells: Xenopus oocytes (cRNA injection, pGEM-HE)
T2 sequence (O35433 whole entry): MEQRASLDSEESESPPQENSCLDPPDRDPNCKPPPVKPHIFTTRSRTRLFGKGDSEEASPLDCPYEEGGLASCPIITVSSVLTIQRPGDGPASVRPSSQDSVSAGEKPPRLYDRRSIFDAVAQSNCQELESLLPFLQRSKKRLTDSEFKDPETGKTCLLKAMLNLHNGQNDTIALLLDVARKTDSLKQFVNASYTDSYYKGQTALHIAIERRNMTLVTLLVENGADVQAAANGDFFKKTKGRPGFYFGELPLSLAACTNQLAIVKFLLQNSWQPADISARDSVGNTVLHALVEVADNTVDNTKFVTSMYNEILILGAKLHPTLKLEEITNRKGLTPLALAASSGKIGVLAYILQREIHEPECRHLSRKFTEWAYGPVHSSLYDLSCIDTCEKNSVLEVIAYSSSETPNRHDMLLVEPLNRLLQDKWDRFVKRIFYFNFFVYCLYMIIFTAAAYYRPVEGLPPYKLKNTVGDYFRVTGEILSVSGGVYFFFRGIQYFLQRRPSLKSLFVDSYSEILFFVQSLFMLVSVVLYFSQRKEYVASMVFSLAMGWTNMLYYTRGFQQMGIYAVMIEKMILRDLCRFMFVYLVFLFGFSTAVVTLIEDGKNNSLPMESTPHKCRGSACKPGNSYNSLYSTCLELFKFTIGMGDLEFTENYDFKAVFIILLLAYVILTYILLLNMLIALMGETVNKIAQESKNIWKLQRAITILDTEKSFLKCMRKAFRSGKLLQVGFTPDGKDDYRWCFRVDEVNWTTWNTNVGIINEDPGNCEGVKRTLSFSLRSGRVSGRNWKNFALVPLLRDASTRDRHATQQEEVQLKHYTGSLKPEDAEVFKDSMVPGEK
Excerpt: To further investigate the putative vanilloid binding pocket in TRPV1, we inspected the cryo-EM structure of TRPV1, looking for residues that are located nearby to the putative RTx density (Figure 1B; regions/residues highlighted in yellow) and that differ between TRPV1 and TRPV2 channels (Figure 3—figure supplement 1; regions highlighted in magenta). […] To quantify the contribution of each of these residues to TRPV1 channel activation by RTx under our experimental conditions, we mutated each to the corresponding residue in TRPV2. We then expressed each construct in oocytes and used the two electrode voltage-clamp technique to study activation by RTx and by the non-specific TRPV channel activator 2-APB. We recorded time courses for channel activation by each agonist while stepping the membrane potential from −60 to +60 mV every 3 s from a holding potential of 0 mV using an external recording solution containing 100 mM KCl (internal K^+ concentration in a healthy oocyte is 100 mM) (Figure 3A, left). We also recorded current-voltage (I-V) relations by stepping over a wider range of voltages in the absence and presence of activators, or in the presence of ruthenium red (RR), a non-specific inhibitor of TRP channels (Figure 3A, right).
The WT rat TRPV1 and TRPV2 channels in the pcDNA3.1 vector were kindly provided by Dr. David Julius (UCSF) ([Caterina et al., 1997]; [Caterina et al., 1999]) and subcloned into the pGEM-HE vector ([Liman et al., 1992]). Mutations were introduced into rTRPV1 using a two-step PCR mutagenesis technique and the resulting constructs were verified by sequencing. All channel constructs were expressed in Xenopus oocytes and studied following 1–4 days incubation after cRNA injection (incubated at 17°C in 96 mM NaCl, 2 mM KCl, 5 mM HEPES, 1 mM MgCl2 and 1.8 mM CaCl2, 50 μg/ml gentamycin, pH 7.6 with NaOH) using the two-electrode voltage-clamp recording technique (OC-725C, Warner Instruments, Hamden, CT) with a 150 μl recording chamber. Data were filtered at 1–3 kHz and digitized at 20 kHz using pClamp software (Molecular Devices, Sunnyvale, CA). […]

[4] = target: T3, TRPV1 QM (S512F, M547L, T550L, E570Q) (Rattus norvegicus, UniProt O35433, E570Q/M547L/S512F/T550L); experiment: Two-electrode voltage-clamp in Xenopus oocytes, TRPV1 QM; type: cell-based; conditions: 2 mM 2-APB
T3 construct: expressed in transfected cells; host or cells: Xenopus oocytes (cRNA injection)
T3 sequence (O35433 whole entry S512F/M547L/T550L/E570Q): as the sequence (O35433 whole entry) above, with S512F, M547L, T550L, E570Q counted along it
Excerpt: as §1

[5] = target: T4, WT TRPV2 (Rattus norvegicus, UniProt Q9WUD2); experiment: Two-electrode voltage-clamp in Xenopus oocytes, WT TRPV2; type: cell-based; conditions: 4 mM 2-APB
T4 construct: expressed in transfected cells; host or cells: Xenopus oocytes (cRNA injection, pGEM-HE)
T4 sequence (Q9WUD2 whole entry): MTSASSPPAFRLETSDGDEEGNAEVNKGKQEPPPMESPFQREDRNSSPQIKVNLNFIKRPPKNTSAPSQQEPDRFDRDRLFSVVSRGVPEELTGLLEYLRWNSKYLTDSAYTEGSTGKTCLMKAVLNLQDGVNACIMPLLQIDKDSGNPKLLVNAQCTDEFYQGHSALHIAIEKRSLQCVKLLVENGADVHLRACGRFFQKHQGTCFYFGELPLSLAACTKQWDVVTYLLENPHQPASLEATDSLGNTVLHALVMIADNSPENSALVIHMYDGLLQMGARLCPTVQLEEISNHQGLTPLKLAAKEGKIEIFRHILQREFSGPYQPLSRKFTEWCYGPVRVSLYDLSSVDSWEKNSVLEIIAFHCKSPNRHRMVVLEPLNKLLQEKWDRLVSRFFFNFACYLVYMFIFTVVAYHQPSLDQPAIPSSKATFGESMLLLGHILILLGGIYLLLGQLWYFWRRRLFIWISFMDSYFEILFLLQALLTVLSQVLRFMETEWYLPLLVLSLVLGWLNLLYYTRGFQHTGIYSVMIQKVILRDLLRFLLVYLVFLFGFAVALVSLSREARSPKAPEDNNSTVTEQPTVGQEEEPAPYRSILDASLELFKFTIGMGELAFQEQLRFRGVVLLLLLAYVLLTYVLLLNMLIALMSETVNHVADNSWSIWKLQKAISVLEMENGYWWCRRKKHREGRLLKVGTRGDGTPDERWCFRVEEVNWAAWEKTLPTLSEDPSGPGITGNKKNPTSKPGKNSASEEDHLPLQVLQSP
Excerpt: as §1

[6] = system: full-length 1D4-tagged TRPV1; experiment: 3H-RTx binding to S. cerevisiae membranes containing 1D4-tagged TRPV1; set-up: species or system rat; conditions: membranes, RTx binding in the presence of DkTx vs control
Excerpt: The polymodal activation of TRPV1 has been widely conceptualized using allosteric models wherein binding of activators (such as vanilloids, protons, DkTx or voltage) are allosterically coupled to opening of the pore ([Brauchi et al., 2004]; [Jara-Oseguera et al., 2016]; [Matta and Ahern, 2007]). The allosteric nature of these interactions has begun to be explored using electrophysiological measurements of channel function ([Jara-Oseguera et al., 2016]; [Yao et al., 2010]), but has thus far not been investigated biochemically. We therefore tested whether binding of DkTx can enhance the affinity of TRPV1 for RTx, which would be predicted by an allosteric model wherein the two activators promote opening by binding more tightly to the open state. For these experiments we used a 1D4-tagged TRPV1 construct where expression in S. cerevisiae was driven by a constitutive promoter and we performed binding assays on yeast membranes where the vanilloid would have free access to the channel protein (see Methods). Under these conditions, we measured a Kd for RTx binding to 1D4-tagged TRPV1 of 0.6 nM under control conditions, about ten fold higher affinity than what we measured in intact cells using GFP-tagged TRPV1. When we measured the concentration-dependence of RTx binding to 1D4-tagged TRPV1 in the presence of DkTx, we observed that the tarantula toxin enhanced the affinity for RTx by about 3-fold (Figure 2A). The effects of DkTx were concentration-dependent (Figure 2B) and were observed independent of whether the binding assay was performed at 37°C (our standard temperature) or at 30°C (Figure 2A).
The full-length TRPV1 and TRPV2 channels with 1D4 affinity tags (TETSQVAPA) on their C-termini were cloned into the YEpHIS vector and expressed in the BJ5457 strain of S. cerevisiae using the strong constitutively active PMA1 promoter, as previously described ([Moiseenkova-Bell et al., 2008]). After 48 hr of expression at 30°C in YPD media, cells were harvested by centrifugation and re-suspended in PBS buffer, supplemented with complete protease inhibitor cocktail (Roche, Indianapolis, IN) and 4-amidinophenylmethanesulfonyl fluoride hydrochloride (APMSF) (Sigma-Aldrich, St. Louis, MO). Cells were broken by passing through an Avestin homogenizer at the pressure of 35 kpsi, cell lysate was cleared by centrifugation at 8,000 g for 15 min and membranes were isolated by ultracentrifugation at 190,000 g for 1 hr. Membrane pellets were re-suspended in PBS buffer supplemented with protease inhibitors and 200 mM sucrose, flash-frozen in liquid nitrogen and stored at -70°C until RTx binding measurements.
S. cerevisiae cells overexpressing TRPV1 constructs to be used in ligand binding assays on intact cells (Figure 1E,F) were grown as for small scale expression trials. 24 hr after protein induction cells were spun down at 4000g, the supernatant was removed and the pellet resuspended in 1x PBS, normalizing OD600 to 75 for each sample, and aliquoted for storage at -80°C. ^3H-RTx binding assays on cells were performed at 37°C as previously described ([Feng et al., 2015]), but where non-specific binding of RTx was measured using cells expressing GFP alone. The binding of RTx to TRPV1 and TRPV2 in membranes (e.g. Figure 2A,B and 5C) was performed at 37°C unless otherwise stated using membranes prepared from large scale protein preparations of S. cerevisiae containing rat TRPV1 and TRPV2 with a 1D4 tag expressed using a constitutive promoter as in [Moiseenkova-Bell et al., 2008]. Data for binding of RTx to membranes was corrected for non-specific binding, determined using either excess non-radioactive ligand or heat inactivation of the protein, as previously described ([Feng et al., 2015]). The TRPV1-activating double-knot toxin (DkTx) was produced recombinantly, folded in vitro and purified as previously described ([Bae et al., 2012]). Yeast membranes were incubated with DkTx solution for 1 hr at 4°C with gentle agitation prior to undertaking RTx binding assays. […]

## COc1cc(CNC(=O)CCCC/C=C/C(C)C)ccc1O [capsaicin]
[1]
  channel activation by capsaicin: remained insensitive
[2]
  sensitivity to capsaicin: insensitive to capsaicin

## NCCOB(c1ccccc1)c1ccccc1 [2-APB, 2-aminoethoxydiphenyl borate]
[3]; 2 mM 2-APB, +60 and -60 mV
  channel activation by 2-APB: reversible activation
[4]
  channel activation by 2-APB: retaining sensitivity
[5]
  channel activation by 2-APB: could be activated

## N.N.N.N.N.N.N.N.N.N.N.N.N.N.[Cl-].[Cl-].[Cl-].[Cl-].[Cl-].[Cl-].[O-2].[O-2].[Ru+3].[Ru+3].[Ru+4] [RR, ruthenium red]
[3]; 50 µM RR after 100 nM RTx
  inhibition of RTx-activated currents by RR: blocked the RTx-activated currents

B1: double-knot toxin (protein, UniProt P0CH43 1-79, looked up)
Tau-theraphotoxin-Hs1a: DCAKEGEVCSWGKKCCDLDNFYCPMEFIPHCKKYKPYVPVTTNCAKEGEVCGWGSKCCHGLDCPLAFIPYCEKYRGRND
[6]
  enhancement of the affinity for RTx by DkTx: about 3 fold
